The text below walks through data of US8716292B2, “Riminophenazines with 2-(heteroaryl)amino substituents and their anti-microbial activity” (priority 2010, dated 2014).

In this assay the test system is Mycobacterium tuberculosis H37Rv strains. The assay is described as follows: In vitro assay for antimicrobial susceptibility (microplate Alamar blue MIC). Format: cell-based. To be noted: Mycobacterium tuberculosis, H37RV, read-out: MIC (μg/mL) against H37Rv.
[1] abbreviates: in vitro, Mycobacterium tuberculosis H37Rv strains.

In brackets after ≈: the same amount, converted by molar mass. Read-outs that look alike come from different tables or passages of the source.

In the case of `COc1ncccc1Nc1cc2nc3ccccc3n(-c3ccc(F)cc3)c-2c/c1=N\C1CCSCC1` [TBI-1042, 5-(4-Fluorophenyl)-3-(4-tetrahydrothiopyranyl)imino-2-(2-methoxy-3-pyridyl)amino-3,5-dihydrophenazine], the MIC under setting [1] came out at 0.034 µg/mL (≈ 0.0665 µM).
Regarding `Cc1ccc(Nc2cc3nc4ccccc4n(-c4ccccc4)c-3c/c2=N\C2CCN(C)CC2)cn1` [TBI-069, 5-Phenyl-3-(N-methyl-4-piperidyl)imino-2-(6-methyl-3-pyridyl)amino-3,5-dihydrophenazine], under setting [1], the MIC stood at 0.219 µg/mL (≈ 0.461 µM).
Turning to `COc1ncccc1Nc1cc2nc3ccccc3n(-c3ccc(C)cc3)c-2c/c1=N\C1CCOCC1` [TBI-310, 5-(4-Methylphenyl)-3-(4-tetrahydropyranyl)imino-2-(2-methoxy-3-pyridyl)amino-3,5-dihydrophenazine], under setting [1], the MIC worked out at 0.03 µg/mL (≈ 0.061 µM).
`CC(C)/N=c1\cc2n(-c3ccc([S+](C)[O-])cc3)c3ccccc3nc-2cc1Nc1cccnc1` (centres unmarked) [TBI-457, 5-(4-Methylsulfinylphenyl)-3-(1-methylethyl)imino-2-(3-pyridyl)amino-3,5-dihydrophenazine]: the MIC under setting [1] turned out to be 0.469 µg/mL (≈ 1 µM).
Still for that read-out and setting: then `COc1ncccc1Nc1cc2nc3ccccc3n(-c3ccc(OC(F)(F)F)cc3)c-2c/c1=N\C1CC1` [TBI-364, 5-(4-Trifluoromethoxyphenyl)-3-cyclopropylimino-2-(2-methoxy-3-pyridyl)amino-3,5-dihydrophenazine], with 0.015 µg/mL (≈ 0.029 µM).
For the compound `O=[N+]([O-])c1cccnc1Nc1cc2nc3ccccc3n(-c3ccc(F)cc3)c-2c/c1=N\C1CCOCC1` [TBI-1088, 5-(4-Fluorophenyl)-3-(4-tetrahydropyranyl)imino-2-(3-nitro-2-pyridyl)amino-3,5-dihydrophenazine], the MIC (7H9, Alamar blue, inhibition ≧90%) was found to be 0.028 µg/mL (≈ 0.0548 µM).
For the compound `COCC(C/N=c1\cc2n(-c3cccc(Cl)c3)c3ccccc3nc-2cc1Nc1cccnc1OC)OC` (centres unmarked) [TBI-826, 5-(3-Chlorophenyl)-3-(2,3-dimethoxy-1-propyl)imino-2-(2-methoxy-3-pyridyl)amino-3,5-dihydrophenazine], the MIC under setting [1] came to 0.125 µg/mL (≈ 0.236 µM).
`CC(=O)Nc1ccc(Nc2cc3nc4ccccc4n(-c4ccc(C(F)(F)F)cc4)c-3c/c2=N\C2CCOCC2)cn1` [TBI-712, 5-(4-Trifluoromethylphenyl)-3-(4-tetrahydropyranyl)imino-2-(6-acetamino-3-pyridyl)amino-3,5-dihydrophenazine]: under setting [1], the MIC turned out to be 0.158 µg/mL (≈ 0.276 µM).
Take `Clc1ccc(-n2c3c/c(=N\CCN4CCOCC4)c(Nc4cccnc4)cc-3nc3ccccc32)cc1` [TBI-433, 5-(4-Chlorophenyl)-3-(2-morpholinoethyl)imino-2-(3-pyridyl)amino-3,5-dihydrophenazine]: the MIC under setting [1] amounted to 0.25 µg/mL (≈ 0.489 µM).
With `Fc1ccc(-n2c3c/c(=N\C4CCCCC4)c(Nc4cccnc4)cc-3nc3ccccc32)cc1` [TBI-920, 5-(4-Fluorophenyl)-3-cyclohexylimino-2-(3-pyridyl)amino-3,5-dihydrophenazine], under setting [1], the MIC turned out to be 0.029 µg/mL (≈ 0.0626 µM).
In the case of `Clc1ccc(-n2c3c/c(=N\C4CCSCC4)c(Nc4cccnc4)cc-3nc3ccccc32)cc1` [TBI-458], under setting [1], the MIC is 0.018 µg/mL (≈ 0.0361 µM).
As to `COc1ccc(Nc2cc3nc4ccccc4n(-c4ccccc4)c-3c/c2=N\C2CCOCC2)cn1` [TBI-515, 5-Phenyl-3-(4-tetrahydropyranyl)imino-2-(6-methoxy-3-pyridyl)amino-3,5-dihydrophenazine], the MIC under setting [1] amounted to 0.233 µg/mL (≈ 0.488 µM).
`CC(C)CN1CCC(/N=c2\cc3n(-c4ccccc4)c4ccccc4nc-3cc2Nc2cccnc2)CC1` [TBI-057, 5-phenyl-3-(N-isobutyl-4-piperidyl)imino-2-(3-pyridyl)amino-3,5-dihydrophenazine]: the MIC under setting [1] stood at 0.125 µg/mL (≈ 0.249 µM).
In the case of `COC1CCC(/N=c2\cc3n(-c4ccc(OC(F)(F)F)cc4)c4ccc(F)cc4nc-3cc2Nc2ccc(C)nc2)CC1` (centres unmarked) [TBI-866, 8-Fluoro-5-(4-trifluoromethoxyphenyl)-3-(4-methoxycyclohexyl)imino-2-(6-methyl-3-pyridyl)amino-3,5-dihydrophenazine], the MIC under setting [1] was 0.027 µg/mL (≈ 0.0456 µM).
